Columns and labels:
[1] = system: paclitaxel induced peripheral neuropathy; assay: Reversal of allodynia induced by paclitaxel in mice (s.c. or p.o., von Frey frequency method); type: in vivo, c57bl/6 mice; settings: Mus musculus, po, 1 h, 3 mg/kg p.o., tested 60 min after dosing, read-out: Screen @ 3 mg/kg po (% MPE)
Procedure: Compounds were tested for efficacy in mouse models of chemotherapy induced peripheral neuropathy. […] For these studies […]/6 mice are habituated to the test environment and baseline measurements of pain sensitivity are assessed. To determine mechanical responses, the threshold for responses to punctate mechanical stimuli (mechanical hyperalgesia) was tested according to the frequency method. In brief, the plantar surface of the animal hindpaw was stimulated with a single von Frey monofilament (0.4 g) for approximately 1-2 seconds. If there was a withdrawal response, it was recorded as a positive response. A response was defined as a lifting or shaking of the paw upon stimulation. This was repeated ten times for each mouse. The final measurement for each mouse is the % non-response to stimulation for the ten trials. The % non-response to stimulation is converted to a % MPE. For paclitaxel induced peripheral neuropathy, a series of injections of PAC (6 mg/kg, i.p.) on days 1, 3, 5 and 7 is used to induce peripheral neuropathy. After approximately 14 days from the initiation of PAC injections, animals are re-assessed for mechanical sensitivity. […] On test day animals are dosed with compounds either subcutaneously or orally and tested for mechanical response by the frequency method either 30 min (s.c.) or 60 min (p.o.) after drug administration. Data is presented as a % MPE. For oxaliplatin induced peripheral neuropathy, a series of injections of OXA (4 mg/kg, i.p.) on days 1-5 is used to induce peripheral neuropathy. After approximately 14 days from the initiation of PAC injections, animals are re-assessed for mechanical sensitivity. […] On test day animals are dosed with compounds subcutaneously and tested for mechanical response by the frequency method 30 min after drug administration. Data is presented as a % MPE. One or more of the compounds show reversal of chemotherapeutic induced peripheral neuropathy.

[2] = target: T1, human sphingosine-1-phosphate receptor 1 (S1P1) (Homo sapiens (Human), UniProt P21453); assay: Inhibition of cAMP production (HTRF cAMP HiRange), S1P1 CHO-K1 cells; type: cell-based; settings: for Emax: CHO-K1, efficacy (SPAN) normalized to fingolimod, read-out: hS1P1 cAMP SPAN; for hS1P1 cAMP pEC50: inhibition of cAMP production, S1P1 CHO-K1 cells
How it was run: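 CHO-K1 cells stably co-expressing human S1P1 (C-terminal Prolink tag) and EA-β-arrestin2 were grown in AssayComplete Media 6 at 37° C. and 5% CO2, plated, and incubated overnight. Agonist-driven inhibition of intracellular cAMP was read by TR-FRET with the HTRF cAMP HiRange kit on a PheraStar reader. Potency is pEC50, and efficacy (SPAN) is normalized to fingolimod.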
Target sequence in this assay (P21453 whole entry, looked up): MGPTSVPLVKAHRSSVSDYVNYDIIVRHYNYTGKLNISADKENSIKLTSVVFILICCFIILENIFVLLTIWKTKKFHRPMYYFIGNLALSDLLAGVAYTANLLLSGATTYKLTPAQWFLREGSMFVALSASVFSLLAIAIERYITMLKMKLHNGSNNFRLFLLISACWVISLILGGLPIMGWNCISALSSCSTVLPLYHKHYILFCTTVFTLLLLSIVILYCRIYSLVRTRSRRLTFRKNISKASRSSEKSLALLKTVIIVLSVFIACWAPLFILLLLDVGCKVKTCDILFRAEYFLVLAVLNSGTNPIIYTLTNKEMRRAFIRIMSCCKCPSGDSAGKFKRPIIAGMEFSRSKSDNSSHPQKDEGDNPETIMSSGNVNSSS

[3] = target: T1, human sphingosine-1-phosphate receptor 1 (S1P1); assay: β-Arrestin2 recruitment assay (PathHunter), S1P1 CHO-K1 cells; type: cell-based; settings: for Emax: CHO-K1, efficacy (SPAN) normalized to fingolimod, read-out: hS1P1 B-arrestin2 SPAN; for hS1P1 B-arrestin2 pEC50: β-arrestin2 recruitment, S1P1 CHO-K1 cells
How it was run: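 Enzyme-fragment complementation read-out: agonist-driven β-arrestin2 binding to ProLink-tagged human S1P1 in stable CHO-K1 cells restores β-galactosidase, measured 1 h at room temperature after a 60 min 37° C. compound incubation. Potency as pEC50, efficacy relative to fingolimod (SPAN).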
Target sequence in this assay (P21453 whole entry, looked up): as above
Target sequence in this assay (P32121 whole entry partner, looked up): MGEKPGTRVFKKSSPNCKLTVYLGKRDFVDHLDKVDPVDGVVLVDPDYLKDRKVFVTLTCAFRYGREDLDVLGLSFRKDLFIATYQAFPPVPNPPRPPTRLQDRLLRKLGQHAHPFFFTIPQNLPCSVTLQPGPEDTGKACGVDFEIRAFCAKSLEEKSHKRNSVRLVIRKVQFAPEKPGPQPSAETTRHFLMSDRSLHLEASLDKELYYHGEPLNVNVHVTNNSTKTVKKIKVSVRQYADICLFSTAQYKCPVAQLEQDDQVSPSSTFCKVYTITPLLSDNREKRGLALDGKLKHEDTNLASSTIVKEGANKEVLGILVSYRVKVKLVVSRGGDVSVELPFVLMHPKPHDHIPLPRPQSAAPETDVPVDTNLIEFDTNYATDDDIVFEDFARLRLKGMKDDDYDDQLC

Row | Compound | inhibition in vivo at 3 mg/kg [1] [%] | Emax [2] [%] | hS1P1 cAMP pEC50 [2] | Emax [3] [%] | hS1P1 B-arrestin2 pEC50 [3]
1 | N#Cc1cc(-c2nc(-c3ccc4[nH]c(=O)oc4c3)no2)ccc1NCC1CC1 [Compound 726, 2-(cyclopropylmethylamino)-5-[3-(2-oxo-3H-1,3-benzoxazol-6-yl)-1,2,4-oxadiazol-5-yl]benzonitrile] | > 50 | – | – | – | –
2 | CC(C)Nc1ccc(-c2nc(-c3ccc4[nH]c(=O)[nH]c4c3)no2)cc1C#N [Compound 728, 2-(isopropylamino)-5-(3-(2-oxo-2,3-dihydro-1H-benzo[d]imidazol-5-yl)-1,2,4-oxadiazol-5-yl)benzonitrile] | > 50 | – | – | – | –
3 | N#Cc1cc(-c2nc(-c3ccc4c(c3)CNC4=O)no2)ccc1NCC1CC1 [Compound 727, 2-((cyclopropylmethyl)amino)-5-(3-(1-oxoisoindolin-5-yl)-1,2,4-oxadiazol-5-yl)benzonitrile] | > 50 | – | – | – | –
4 | CC(C)Nc1ccc(-c2nnc(-c3ccc4cnccc4c3)o2)cc1C#N [Compound 735, 5-[5-(isoquinolin-6-yl)-1,3,4-oxadiazol-2-yl]-2-[(propan-2-yl)amino]benzonitrile] | < 50 | – | – | – | –
5 | CC(C)n1nnc2cc(-c3nc(-c4ccccc4Br)co3)ccc21 [Compound 183, 5-[4-(2-bromophenyl)-1,3-oxazol-2-yl]-1-(propan-2-yl)-1H-1,2,3-benzotriazole] | – | > 75 | >6.5 | > 75 | >5
6 | CCC1(CC)CC(=O)c2cc(-c3nc(-c4ccsc4)no3)ccc2N1 [Compound 554, 2,2-diethyl-6-(3-(thiophen-3-yl)-1,2,4-oxadiazol-5-yl)-2,3-dihydroquinolin-4(1H)-one] | – | > 75 | >6.5 | > 75 | >5
7 | Brc1ccccc1-c1noc(-c2ccc3c(c2)nnn3C2CC2)n1 [Compound 83, 5-[3-(2-bromophenyl)-1,2,4-oxadiazol-5-yl]-1-cyclopropyl-1H-1,2,3-benzotriazole] | – | > 75 | >6.5 | > 75 | >5
8 | CCC1(CC)CC(=O)c2cc(-c3nnc(-c4ccccc4OC)o3)ccc2O1 [Compound 300, 2,2-diethyl-6-(5-(2-methoxyphenyl)-1,3,4-oxadiazol-2-yl)chroman-4-one] | – | – | <6.5 | – | <5
9 | CC(C)Oc1ccccc1-c1noc(-c2ccc3c(ccn3C(C)C)c2)n1 [Compound 324, 3-(2-isopropoxyphenyl)-5-(1-isopropyl-1H-indol-5-yl)-1,2,4-oxadiazole] | – | < 75 | <6.5 | < 75 | <5
10 | CCC1(CC)CC(=O)c2cc(-c3nc(-c4ccncc4F)no3)ccc2O1 [Compound 226, 2,2-diethyl-6-(3-(3-fluoropyridin-4-yl)-1,2,4-oxadiazol-5-yl)chroman-4-one] | – | – | <6.5 | – | <5
11 | COc1ccc2nc(-c3ccc4c(c3)nnn4C(C)C)oc2c1 [Compound 426, 2-(1-isopropyl-1H-benzo[d][1,2,3]triazol-5-yl)-6-methoxybenzo[d]oxazole] | – | > 75 | >6.5 | > 75 | <5
12 | Cc1ccc(-c2noc(-c3ccc4c(c3)nnn4C(C)C)n2)cn1 [Compound 236, 5-[3-(6-methylpyridin-3-yl)-1,2,4-oxadiazol-5-yl]-1-(propan-2-yl)-1H-1,2,3-benzotriazole] | – | < 75 | <6.5 | > 75 | <5
13 | Cc1ccccc1-c1noc(-c2ccc3c(c2)nnn3CC2CC2)n1 [Compound 288, 1-(cyclopropylmethyl)-5-[3-(2-methylphenyl)-1,2,4-oxadiazol-5-yl]-1H-1,2,3-benzotriazole] | – | < 75 | <6.5 | < 75 | <5
14 | CC(C)n1ccc2cc(-c3noc(-c4cccnc4)n3)ccc21 [Compound 396, 3-(1-isopropyl-1H-indol-5-yl)-5-(pyridin-3-yl)-1,2,4-oxadiazole] | – | – | <6.5 | – | <5
15 | Cc1ccncc1-c1nc(-c2ccc3c(c2)nnn3CC(C)(C)CO)no1 [Compound 541, 2,2-dimethyl-3-(5-(5-(4-methylpyridin-3-yl)-1,2,4-oxadiazol-3-yl)-1H-benzo[d][1,2,3]triazol-1-yl)propan-1-ol] | – | – | <6.5 | – | <5
16 | Cc1ccccc1-c1noc(-c2cnc3c(c2)nnn3C(C)C)n1 [Compound 382, 3-(2-methylphenyl)-5-[3-(propan-2-yl)-3H-[1,2,3]triazolo[4,5-b]pyridin-6-yl]-1,2,4-oxadiazole] | – | – | >6.5 | – | >5
17 | COc1ccccc1-c1nnc(-c2ccc3c(c2)oc(=O)n3C)o1 [Compound 350, 6-[5-(2-methoxyphenyl)-1,3,4-oxadiazol-2-yl]-3-methyl-2,3-dihydro-1,3-benzoxazol-2-one] | – | < 75 | <6.5 | < 75 | <5
18 | CC(C)n1nnc2cc(-c3cc(-c4ccccc4F)c[nH]3)ccc21 [Compound 542, 5-[4-(2-fluorophenyl)-1H-pyrrol-2-yl]-1-(propan-2-yl)-1H-1,2,3-benzotriazole] | – | – | <6.5 | – | >5
19 | CCC1(CC)CC(=O)c2cc(-c3nc(-c4cc[nH]c4)no3)ccc2O1 [Compound 485, 6-(3-(1H-pyrrol-3-yl)-1,2,4-oxadiazol-5-yl)-2,2-diethylchroman-4-one] | – | – | >6.5 | – | <5
20 | CC1(C)CC(=O)c2cc(-c3nc(-c4ccncc4)no3)ccc2O1 [Compound 291, 2,2-dimethyl-6-[3-(pyridin-4-yl)-1,2,4-oxadiazol-5-yl]-3,4-dihydro-2H-1-benzopyran-4-one] | – | < 75 | <6.5 | < 75 | <5
21 | CCC1(CC)CC(=O)c2cc(-c3nc(-c4ccc(C)s4)no3)ccc2O1 [Compound 34, 2,2-diethyl-6-(3-(5-methylthiophen-2-yl)-1,2,4-oxadiazol-5-yl)chroman-4-one] | – | – | <6.5 | – | >5
22 | COc1ccccc1-c1noc(-c2ccc3c(c2)nnn3C2CC2)n1 [Compound 173, 1-cyclopropyl-5-[3-(2-methoxyphenyl)-1,2,4-oxadiazol-5-yl]-1H-1,2,3-benzotriazole] | – | > 75 | >6.5 | > 75 | >5
23 | CC(C)Oc1ccccc1-c1noc(-c2ccc3c(cnn3C(C)C)c2)n1 [Compound 334, 3-(2-isopropoxyphenyl)-5-(1-isopropyl-1H-indazol-5-yl)-1,2,4-oxadiazole] | – | > 75 | <6.5 | > 75 | <5
24 | CC(C)n1nnc2cc(-c3nc(-c4ccccc4Cl)no3)ccc21 [Compound 17, 5-[3-(2-chlorophenyl)-1,2,4-oxadiazol-5-yl]-1-(propan-2-yl)-1H-1,2,3-benzotriazole] | – | – | >6.5 | – | >5
25 | CC(C)n1nnc2cc(-c3noc(-c4ccc(F)cc4)n3)ccc21 [Compound 255, 5-(4-fluorophenyl)-3-(1-isopropylbenzotriazol-5-yl)-1,2,4-oxadiazole] | – | < 75 | <6.5 | < 75 | <5
26 | Cc1cc(C)cc(-c2noc(-c3ccc4c(c3)nnn4C3CCCCC3)n2)c1 [Compound 158, 1-cyclohexyl-5-[3-(3,5-dimethylphenyl)-1,2,4-oxadiazol-5-yl]-1H-1,2,3-benzotriazole] | – | < 75 | <6.5 | < 75 | <5
27 | CCC1(CC)CC(=O)c2cc(-c3nc(-c4cccc(O)c4)no3)ccc2O1 [Compound 227, 2,2-diethyl-6-[3-(3-hydroxyphenyl)-1,2,4-oxadiazol-5-yl]chroman-4-one] | – | – | >6.5 | – | <5

Reference: patent US11912693B2, “Compounds for modulating S1P1 activity and methods of using the same” (TREVENA, INC., priority 2017, dated 2024)
